Test results published in US9708316B2 (BRISTOL-MYERS SQUIBB COMPANY, priority 2014, dated 2017).

How the values were obtained:
HIS-TGFβR2 WT = HIS-TGFβR2 WT (Homo sapiens, UniProt P37173); experiment: HTRF probe-displacement assay, HIS-TGFβR2 WT; assay type: binding
HIS-TGFβR1 T204D = molecular target: T1, HIS-TGFβR1 T204D (Homo sapiens, UniProt P36897, T204D); experiment: HTRF probe-displacement assay, HIS-TGFβR1 T204D; assay type: binding; conditions: read-out: TGFβR1 (μM) IC50
T1 sequence (P36897 34-503 T204D): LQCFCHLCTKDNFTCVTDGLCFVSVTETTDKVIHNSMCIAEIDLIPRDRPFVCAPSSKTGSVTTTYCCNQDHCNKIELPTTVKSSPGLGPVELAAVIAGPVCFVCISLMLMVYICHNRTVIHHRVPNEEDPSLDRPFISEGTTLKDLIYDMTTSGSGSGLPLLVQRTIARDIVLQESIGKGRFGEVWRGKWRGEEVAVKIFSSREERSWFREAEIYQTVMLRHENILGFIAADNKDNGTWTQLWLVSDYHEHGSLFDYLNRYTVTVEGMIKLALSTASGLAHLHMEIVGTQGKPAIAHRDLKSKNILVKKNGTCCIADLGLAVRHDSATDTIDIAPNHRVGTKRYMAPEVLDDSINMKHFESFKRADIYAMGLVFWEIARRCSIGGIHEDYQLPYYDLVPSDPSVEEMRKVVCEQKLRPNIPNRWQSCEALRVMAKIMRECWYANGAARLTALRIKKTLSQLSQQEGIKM

Chain of HIS-TGFβR2 WT (P37173 23-567): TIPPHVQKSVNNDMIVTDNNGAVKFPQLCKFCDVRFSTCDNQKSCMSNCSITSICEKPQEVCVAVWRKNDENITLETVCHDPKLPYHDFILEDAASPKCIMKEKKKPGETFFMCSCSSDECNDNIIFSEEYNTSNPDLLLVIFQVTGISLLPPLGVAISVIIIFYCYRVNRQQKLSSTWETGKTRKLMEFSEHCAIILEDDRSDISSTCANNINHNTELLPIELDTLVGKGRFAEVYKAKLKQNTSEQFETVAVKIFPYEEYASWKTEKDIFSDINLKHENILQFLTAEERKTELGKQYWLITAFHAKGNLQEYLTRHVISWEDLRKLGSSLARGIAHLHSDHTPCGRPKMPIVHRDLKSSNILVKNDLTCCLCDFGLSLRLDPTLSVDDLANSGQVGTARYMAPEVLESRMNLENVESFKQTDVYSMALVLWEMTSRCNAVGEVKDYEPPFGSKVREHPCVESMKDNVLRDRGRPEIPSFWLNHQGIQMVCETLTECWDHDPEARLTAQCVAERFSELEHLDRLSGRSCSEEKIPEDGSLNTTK

SMILES	IC50 (HIS-TGFβR2 WT) [µM]	IC50 (HIS-TGFβR1 T204D) [µM]
CCOc1ccc(-c2c(-c3ccnc(NC(C)=O)c3)[nH]c3cc(Cl)cnc23)cn1 [Example 258, N-(4-(6-Chloro-3-(6-ethoxypyridin-3-yl)-1H-pyrrolo[3,2-b]pyridin-2-yl)pyridin-2-yl)acetamide]	6.29	0.002
COc1ccc(-c2c(-c3ccnc(NC(C)=O)c3)[nH]c3c(C#N)ccnc23)cn1 [Example 80, N-(4-(7-Cyano-3-(6-methoxypyridin-3-yl)-1H-pyrrolo[3,2-b]pyridin-2-yl)pyridin-2-yl)acetamide]	0.083	0.007
CC(=O)Nc1cc(-c2[nH]c3cc(Cl)cnc3c2-c2nc(C(F)(F)F)cs2)ccn1 [Example 175, N-(4-(6-Chloro-3-(4-(trifluoromethyl)thiazol-2-yl)-1H-pyrrolo[3,2-b]pyridin-2-yl)pyridin-2-yl)acetamide]	> 15	0.0004
O=C(CNCCO)Nc1cc(-c2[nH]c3cc(Cl)cnc3c2-c2ccc(F)cn2)ccn1 [Example 75, N-{4-[6-Chloro-3-(5-fluoropyridin-2-yl)-1H-pyrrolo[3,2-b]pyridin-2-yl]pyridin-2-yl}-2-[(2-hydroxyethyl)amino]acetamide]	1.03	0.005
CC(=O)Nc1cc(-c2[nH]c3c(C(C)O)ccnc3c2-c2ccc(Cl)nc2)ccn1 (stereo not drawn) [Example 264, N-(4-(3-(6-Chloropyridin-3-yl)-7-(1-hydroxyethyl)-1H-pyrrolo[3,2-b]pyridin-2-yl)pyridin-2-yl)acetamide]	0.681	0.001
CNC(=O)c1cc(Cl)nc2c(-c3ccc(OC)nc3)c(-c3ccnc(NC(C)=O)c3)[nH]c12 [Example 56, 5-Chloro-2-(2-acetamidopyridin-4-yl)-3-(6-methoxypyridin-3-yl)-N-methyl-1H-pyrrolo[3,2-b]pyridine-7-carboxamide]	1.1	0.017
COc1ccc(-c2c(-c3ccnc(NC(C)=O)c3)[nH]c3cc(C)cnc23)cn1 [Example 173, N-(4-(3-(6-Methoxypyridin-3-yl)-6-methyl-1H-pyrrolo[3,2-b]pyridin-2-yl)pyridin-2-yl)acetamide]	1.35	0.15
COc1ccc(-c2c(-c3ccnc(NC(C)=O)c3)[nH]c3cc(C)cnc23)nc1 [Example 184, N-(4-(3-(5-Methoxypyridin-2-yl)-6-methyl-1H-pyrrolo[3,2-b]pyridin-2-yl)pyridin-2-yl)acetamide]	> 15	6.52
CC(=O)Nc1cc(-c2[nH]c3cccnc3c2-c2cnc(F)c(C)c2)ccn1 [Example 11, N-{4-[3-(6-Fluoro-5-methylpyridin-3-yl)-1H-pyrrolo[3,2-b]pyridin-2-yl]pyridin-2-yl}acetamide]	0.009	0.027
CN1CCN(CC(=O)Nc2cc(-c3[nH]c4cc(Cl)cnc4c3-c3ccc(F)cn3)ccn2)CC1 [Example 88, N-{4-[6-Chloro-3-(5-fluoropyridin-2-yl)-1H-pyrrolo[3,2-b]pyridin-2-yl]pyridin-2-yl}-2-(4-methylpiperazin-1-yl)acetamide]	9.92	0.001
CC(=O)Nc1cc(-c2[nH]c3c(C)ccnc3c2-c2cccc(C(F)F)n2)ccn1 [Example 216, N-(4-(3-(6-(Difluoromethyl)pyridin-2-yl)-7-methyl-1H-pyrrolo[3,2-b]pyridin-2-yl)pyridin-2-yl)acetamide]	3.77	0.0013
CC(=O)Nc1cc(-c2[nH]c3cc(C)cnc3c2-c2csc(C)n2)ccn1 [Example 186, N-(4-(6-Methyl-3-(2-methylthiazol-4-yl)-1H-pyrrolo[3,2-b]pyridin-2-yl)pyridin-2-yl)acetamide]	0.821	0.0029

Further lines, results first:

IC50 (HIS-TGFβR2 WT) [µM]	IC50 (HIS-TGFβR1 T204D) [µM]	SMILES
1.55	0.0041	CC(=O)Nc1cc(-c2[nH]c3cc(F)cnc3c2-c2nc(C#N)cs2)ccn1 [Example 226, N-(4-(3-(4-Cyanothiazol-2-yl)-6-fluoro-1H-pyrrolo[3,2-b]pyridin-2-yl)pyridin-2-yl)acetamide]
6.57	0.003	COc1cnc2c(-c3ccc(Cl)cn3)c(-c3ccnc(NC(C)=O)c3)[nH]c2c1 [Example 50, N-{4-[3-(5-Chloropyridin-2-yl)-6-methoxy-1H-pyrrolo[3,2-b]pyridin-2-yl]pyridin-2-yl}acetamide]
> 15	0.004	CC(=O)Nc1cc(-c2[nH]c3c(-c4c(C)noc4C)ccnc3c2-c2cccc(C(F)F)n2)ccn1 [Example 130, N-(4-{3-[6-(Difluoromethyl)pyridin-2-yl]-7-(dimethyl-1,2-oxazol-4-yl)-1H-pyrrolo[3,2-b]pyridin-2-yl}pyridin-2-yl)acetamide]
> 15	0.007	COc1ccc(-c2c(-c3ccnc(NC(=O)CN4CCN(C)CC4)c3)[nH]c3cc(Cl)cnc23)nc1 [Example 249, N-(4-(6-Chloro-3-(5-methoxypyridin-2-yl)-1H-pyrrolo[3,2-b]pyridin-2-yl)pyridin-2-yl)-2-(4-methylpiperazin-1-yl)acetamide]
0.13	0.002	CC(=O)Nc1cc(-c2[nH]c3ccc(F)nc3c2-c2cccc(Cl)n2)ccn1 [Example 34, N-{4-[3-(6-Chloropyridin-2-yl)-5-fluoro-1H-pyrrolo[3,2-b]pyridin-2-yl]pyridin-2-yl}acetamide]
0.011	0.005	CC(=O)Nc1cc(-c2[nH]c3c(C(C)O)ccnc3c2-c2ccc(F)nc2)ccn1 (stereo not drawn) [Example 261, N-(4-(3-(6-Fluoropyridin-3-yl)-7-(1-hydroxyethyl)-1H-pyrrolo[3,2-b]pyridin-2-yl)pyridin-2-yl)acetamide]
> 15	0.001	COc1ccc(-c2c(-c3ccnc(NC(=O)CN4CC[C@H](O)C4)c3)[nH]c3cc(OC)cnc23)nc1 [Example 121, 2-[(3S)-3-Hydroxypyrrolidin-1-yl]-N-{4-[6-methoxy-3-(5-methoxypyridin-2-yl)-1H-pyrrolo[3,2-b]pyridin-2-yl]pyridin-2-yl}acetamide]
≥ 15	0.361	COc1ccc(-c2c(-c3ccnc(NCC(C)C)c3)[nH]c3cc(Cl)cnc23)nc1 [Example 243, 4-(6-Chloro-3-(5-methoxypyridin-2-yl)-1H-pyrrolo[3,2-b]pyridin-2-yl)-N-isobutylpyridin-2-amine]
5.22	0.003	COc1ccc(-c2c(-c3ccnc(NC(C)=O)c3)[nH]c3cc(OC)cnc23)nc1 [Example 284, N-(4-(6-Methoxy-3-(5-methoxypyridin-2-yl)-1H-pyrrolo[3,2-b]pyridin-2-yl)pyridin-2-yl)acetamide]
> 15	0.033	COc1ccc2[nH]c(-c3ccnc(NC(C)=O)c3)c(-c3cccc(Cl)n3)c2n1 [Example 77]
> 15	0.009	CC(=O)Nc1cc(-c2[nH]c3c(OCCN4CCCC4)ccnc3c2-c2cccc(C(F)F)n2)ccn1 [Example 126, N-(4-{3-[6-(Difluoromethyl)pyridin-2-yl]-7-[2-(pyrrolidin-1-yl)ethoxy]-1H-pyrrolo[3,2-b]pyridin-2-yl}pyridin-2-yl)acetamide]
> 15	0.032	COc1ccc(-c2c(-c3ccnc(NC(C)=O)c3)[nH]c3cc(Cl)cnc23)nc1C [Example 170, N-(4-(6-Chloro-3-(5-methoxy-6-methylpyridin-2-yl)-1H-pyrrolo[3,2-b]pyridin-2-yl)pyridin-2-yl)acetamide]
